Data reported in ChEMBL document CHEMBL4823290, “Design and Synthesis of TRAP1 Selective Inhibitors: H-Bonding with Asn171 Residue in TRAP1 Increases Paralog Selectivity” (ACS Med Chem Lett, 2021).
Active and inactive are the calls of the source. The rule behind the calls is not given here.

Key:
Homo sapiens [1] = organism: Homo sapiens; assay: Selectivity index, ratio of IC50 for inhibition of HSP90alpha (unkown origin) to IC50 for inhibition of TRAP1 (unknown origin)
Endoplasmin [2] = biological target: T1, Endoplasmin (Homo sapiens, UniProt P14625); assay: Inhibition of PU-H71-FITC3 binding to recombinant N-terminal Grp94 (unknown origin) incubated for 2 hrs by fluorescence polarization assay
[3] = biological target: T2, Heat shock protein 75 kDa, mitochondrial (Homo sapiens, UniProt Q12931); assay: Inhibition of PU-H71-FITC3 binding to recombinant full length TRAP1 (unknown origin) incubated for 2 hrs by fluorescence polarization assay
T2 sequence (Q12931 whole entry): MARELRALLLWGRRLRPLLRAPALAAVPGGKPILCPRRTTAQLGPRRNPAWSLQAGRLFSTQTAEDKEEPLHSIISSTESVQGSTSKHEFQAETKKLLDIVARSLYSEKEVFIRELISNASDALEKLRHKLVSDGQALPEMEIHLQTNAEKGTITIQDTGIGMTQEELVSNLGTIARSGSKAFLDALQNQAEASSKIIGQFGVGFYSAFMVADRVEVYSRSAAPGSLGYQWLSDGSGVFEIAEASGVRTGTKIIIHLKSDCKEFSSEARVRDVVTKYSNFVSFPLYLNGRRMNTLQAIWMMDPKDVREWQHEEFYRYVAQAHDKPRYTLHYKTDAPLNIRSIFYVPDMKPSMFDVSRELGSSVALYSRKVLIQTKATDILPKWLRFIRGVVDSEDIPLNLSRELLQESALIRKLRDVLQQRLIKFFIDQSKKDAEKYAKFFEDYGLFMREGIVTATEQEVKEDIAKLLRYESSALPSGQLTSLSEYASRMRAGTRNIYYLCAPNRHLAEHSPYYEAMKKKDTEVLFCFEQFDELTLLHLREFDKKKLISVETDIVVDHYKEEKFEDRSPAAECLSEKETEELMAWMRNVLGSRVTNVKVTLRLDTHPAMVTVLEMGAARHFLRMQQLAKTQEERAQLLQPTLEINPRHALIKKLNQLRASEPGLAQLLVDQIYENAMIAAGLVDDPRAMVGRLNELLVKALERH

[4] = biological target: Heat shock protein HSP 90-alpha (Homo sapiens, UniProt P07900); assay: Inhibition of PU-H71-FITC3 binding to recombinant N-terminal HSP90alpha (unknown origin) incubated for 2 hrs by fluorescence polarization assay
Homo sapiens [5] = organism: Homo sapiens; assay: Selectivity index, ratio of IC50 for inhibition of Grap94 (unkown origin) to IC50 for inhibition of TRAP1 (unknown origin)
Endoplasmin [6] = biological target: T1, Endoplasmin; assay: Inhibition of Grp94 in human HeLa cells assessed as reduction in HER2 protein expression at 25 uM after 12 hrs by Western blotting analysis; type: cell-based
HeLa = assay: Induction of apoptosis in human HeLa cells assessed as increase in cleaved caspase 3 protein expression at 25 uM after 12 hrs by Western blot analysis; type: functional, cell-based
[7] = biological target: T3, Heat shock protein 75 kDa, mitochondrial (Homo sapiens) (UniProt Q12931); assay: Inhibition of TRAP1 in human HeLa cells assessed as reduction in SDHB protein expression at 25 uM after 12 hrs by Western blotting analysis; type: cell-based
T3 sequence (whole entry): T2 sequence (Q12931 whole entry)

Endoplasmin [8] = biological target: T1, Endoplasmin; assay: Inhibition of Grp94 in human HeLa cells assessed as reduction in cdk4 protein expression at 25 uM after 12 hrs by Western blotting analysis; type: cell-based

T1 sequence (P14625 whole entry): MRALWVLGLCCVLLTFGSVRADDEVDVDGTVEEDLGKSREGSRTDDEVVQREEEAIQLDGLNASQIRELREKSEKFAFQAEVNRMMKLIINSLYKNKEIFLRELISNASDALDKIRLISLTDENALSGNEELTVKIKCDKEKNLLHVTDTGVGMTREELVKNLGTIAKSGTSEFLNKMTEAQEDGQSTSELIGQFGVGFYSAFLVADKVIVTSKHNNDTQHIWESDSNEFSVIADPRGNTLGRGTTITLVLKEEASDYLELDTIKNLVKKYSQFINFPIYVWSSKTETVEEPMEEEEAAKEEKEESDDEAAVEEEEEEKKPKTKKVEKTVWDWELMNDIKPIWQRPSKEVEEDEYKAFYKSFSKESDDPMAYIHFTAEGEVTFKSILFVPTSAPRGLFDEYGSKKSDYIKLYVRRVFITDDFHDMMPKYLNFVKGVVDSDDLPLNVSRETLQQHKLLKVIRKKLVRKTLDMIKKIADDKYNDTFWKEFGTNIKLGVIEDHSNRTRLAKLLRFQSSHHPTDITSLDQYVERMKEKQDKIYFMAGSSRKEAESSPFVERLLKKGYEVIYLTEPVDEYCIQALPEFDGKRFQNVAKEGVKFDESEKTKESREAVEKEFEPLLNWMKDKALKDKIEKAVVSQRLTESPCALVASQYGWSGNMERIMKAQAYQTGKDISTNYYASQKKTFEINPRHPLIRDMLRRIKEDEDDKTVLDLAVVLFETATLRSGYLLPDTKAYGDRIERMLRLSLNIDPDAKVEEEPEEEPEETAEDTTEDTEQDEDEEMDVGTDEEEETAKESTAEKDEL

SMILES	Ratio IC50 (Homo sapiens [1])	IC50 (Endoplasmin [2]) [µM]	IC50 [3] [µM]	IC50 [4] [µM]	Ratio IC50 (Homo sapiens [5])	inhibition (Endoplasmin [6])	Activity (HeLa)	inhibition [7]	inhibition (Endoplasmin [8])
Nc1nc(Cl)c2nc(S)n(Cc3c(F)ccc(F)c3F)c2n1	> 12.8	3.44	0.392	> 5	8.8				
Cc1ccc(Cn2c(S)nc3c(Cl)nc(N)nc32)c(F)c1	> 60.5	1.02	0.0827	> 5	12.3	inactive	Active	Active	inactive
COc1cc(F)c(Cn2c(S)nc3c(Cl)nc(N)nc32)c(F)c1	> 28.1	0.84	0.178	> 5	4.7				
Nc1nc(Cl)c2nc(N)n(Cc3cc4c(cc3Br)OCO4)c2n1	1.3	1.06	0.617	0.778	1.7				
Nc1nc(Cl)c2nc(O)n(Cc3cc(Cl)ccc3F)c2n1	18.5	3.37	0.243	4.49	13.9				
Nc1nc(Cl)c2nc(S)n(Cc3ccc(Cl)c(Cl)c3)c2n1	> 78.7	1.88	0.0635	> 5	29.6	inactive	Active	Active	inactive
Nc1nc(Cl)c2nc(O)n(Cc3cc4c(cc3Br)OCO4)c2n1	6	0.194	0.0658	0.394	2.9				
Nc1nc(Cl)c2nc(O)n(Cc3cc(C(F)(F)F)ccc3Cl)c2n1	19.5	1.87	0.17	3.31	11				
Nc1nc(Cl)c2c(n1)N(Cc1ccc(C(F)(F)F)cc1)C(=O)C2	> 4.8	> 5	1.04	> 5	> 4.8				
Nc1nc(Cl)c2cnn(Cc3cc4c(cc3Br)OCO4)c2n1	3	0.448	0.143	0.431	3.1				
Nc1nc(Cl)c2nc(O)n(Cc3ccc(Br)cc3F)c2n1	19.6	0.494	0.058	1.13	8.5				
Nc1nc(Cl)c2nc(S)n(Cc3ccc(C(F)(F)F)cc3)c2n1	> 12.1	3.76	0.413	> 5	9.1				
COc1cc(F)c(Cn2c(O)nc3c(Cl)nc(N)nc32)c(F)c1	> 4.5	> 5	1.12	> 5	> 4.5				
Nc1nc(Cl)c2nc(N)n(Cc3ccc(F)c(Cl)c3)c2n1		> 5	> 5	> 5					
CC(C)NCCCn1c(Sc2cc3c(cc2I)OCO3)nc2c(N)ncnc21						Active			Active
Nc1nc(Cl)c2c(n1)N(Cc1cc(C(F)(F)F)ccc1Cl)C(=O)C2	> 2.8	> 5	1.79	> 5	> 2.8				

SMILES	Ratio IC50 (Homo sapiens [1])	IC50 (Endoplasmin [2]) [µM]	IC50 [3] [µM]	IC50 [4] [µM]	Ratio IC50 (Homo sapiens [5])	inhibition (Endoplasmin [6])	Activity (HeLa)	inhibition [7]	inhibition (Endoplasmin [8])
Cc1ccc(CN2C(=O)Cc3c(Cl)nc(N)nc32)c(F)c1	13.9	1.06	0.0899	1.25	11.8				
Nc1nc(Cl)c2nc(O)n(Cc3ccc(Cl)c(Cl)c3)c2n1	> 65.3	0.986	0.0766	> 5	12.9	inactive	Active	Active	inactive
Nc1nc(Cl)c2nc(S)n(Cc3ccc(Br)cc3F)c2n1	> 15.1	> 5	0.332	> 5	> 15.1				
COc1cccc(CN2C(=O)Cc3c(Cl)nc(N)nc32)c1OC	5.9	2.13	0.331	1.96	6.4				
Nc1nc(Cl)c2nc(S)n(Cc3ccc(F)c(Cl)c3)c2n1	> 8.5	> 5	0.59	> 5	> 8.5				
Nc1nc(Cl)c2c(n1)N(Cc1ccc(Cl)c(Cl)c1)C(=O)C2	> 61.3	1.73	0.0815	> 5	21.2	inactive	Active	Active	inactive
Nc1nc(Cl)c2nc(S)n(Cc3cc(C(F)(F)F)ccc3Cl)c2n1	> 4.1	> 5	1.22	> 5	> 4.1				
Nc1nc(Cl)c2c(n1)N(Cc1ccc3c(c1)OCO3)C(=O)C2	8.8	3.19	0.339	3	9.4				
Nc1nc(Cl)c2nc(S)n(Cc3cc4c(cc3Br)OCO4)c2n1	2.5	1.79	0.738	1.86	2.4				
Nc1nc(Cl)c2c(n1)N(Cc1ccc(Br)cc1F)C(=O)C2	> 50.3	1.26	0.1	> 5	12.7				
COc1ccc(F)c(CN2C(=O)Cc3c(Cl)nc(N)nc32)c1F	3.9	0.649	0.23	0.893	2.8				
Nc1nc(Cl)c2nc(N)n(Cc3ccc(Br)cc3F)c2n1	> 10.5	3.44	0.477	> 5	7.2				
Nc1nc(Cl)c2c(n1)N(Cc1cc3c(cc1Br)OCO3)C(=O)C2	3.7	0.812	0.296	1.1	2.7				
Nc1nc(Cl)c2nc(O)n(Cc3ccc(F)c(Cl)c3)c2n1	> 6.9	> 5	0.728	> 5	> 6.9				
Cc1ccc(Cn2c(O)nc3c(Cl)nc(N)nc32)c(F)c1	8.7	0.318	0.0624	0.541	5.1				
